Data from patent US5834445A, “Process for preparing decolorized carotenoid-cyclodextrin complexes” (priority 1995, dated 1998).
“Also recorded” adds a separate entry of the source.

Experiments:
[1] = test system: colon tumors; conditions: animals; cited from earlier work
[2] = test system: colon polyps; conditions: humans; cited from earlier work
[3] = test system: carcinogen-induced epidermoid carcinomas; conditions: in vivo; cited from earlier work
[4] = Absorbance loss at 450 nm of β-carotene/alpha-cyclodextrin with cysteine after 21 days; type: physicochemical; conditions: After 21 days at ambient conditions; UV-Vis
Method: As further described below, various amounts of cysteine were used. Spectroscopic measurements were then made of Samples C, D, E, F (Table VIII), and of a sample consisting of uncomplexed beta-carotene, which was used as a control group.
The results were measured as percent of absorbance loss at 450 nm. The percent of absorbance loss measures the intensity of absorbance. In turn, intensity of absorbance is directly correlated to oxidation and decomposition of beta-carotene.

[5] = Comparative solubility in skin cream with different solubilization mixtures; type: physicochemical; conditions: summary of Tables V and VI
From the text: The relative scale used was from 1 = completely nonsoluble, precipitate
formed, to 10 = completely soluble, no precipitate or suspension visible.
In all cases the carotene was mixed with Solvent #1 prior to mixing with
Solvent #2. This mixture was in turn combined with LUBRIDERM skin cream,

[6] = test system: DMBA induced squamous cell carcinoma; conditions: topical […] solution in mineral oil; cited from earlier work
[7] = visual
Method: Creams containing cyclodextrin-complexed β carotene and uncomplexed β carotene were prepared by adding the respective carotene preparation to one or more of several different commercially available creams. The commercial creams used include LUBRIDERM, NOXZEMA, POND'S hand cream, POND'S Cold Cream, and NIVEA moisturizing cream. The amount of complex needed to achieve a β carotene content of 1% by weight was calculated using the measurement of percent loading for the particular complex, and this amount was added to the cream as purchased. Control samples contained 1% uncomplexed β carotene by weight of the cream.

[8] = Aqueous solution of carotenoid with cyclodextrin, visible precipitate; type: physicochemical
Method: Twenty milligrams of β carotene is mixed with eighty milligrams (abbreviated "mg" hereinafter) of β cyclodextrin. The mixture is then added to 0.5 milliliters (hereinafter abbreviated "ml") of a buffered saline solution, and thoroughly mixed.

[9] = Color and texture of prepared compositions and creams; type: physicochemical
Method: 50 milligrams of β carotene were added to 50 milligrams of vitamin E (as DL-alpha tocopherol acid succinate). To this mixture were added 50 milligrams of β cyclodextrin and 50 milligrams of gelatin derived from bovine skin (bloom 225, type III). […] Next, 1 milliliter of D20 and 1 milliliter of glycerine were added, in that order.
The mixture #1 was then added to 1 milliter of a commercial skin cream, LUBRIDERM, which contains water, mineral oil, petrolatum, sorbitol, lanolin, lanolin alcohol, triethanolamine, cetyl alcohol, butylparaben, methylparaben, propylparaben, and sodium chloride, in order of descending amount.
50 milligrams of β carotene were mixed thoroughly with 50 milligrams of β cyclodextrin. One milliliter of distilled H2 O (d-H2 O) was added to the mixture of carotene and cyclodextrin. […] Fifty milligrams of Vitamin E succinate (crystalline) were then added. […] Next, 1 milliliter of glycerine was added, followed by 150 milligrams of gelatin. […] The same skin cream base was added to composition 2 as in example 1, in the same amount.
Glycerine (1 milliliter) and/or gelatin (50 mg) were added to the mixture, followed by 1 milliliter of LUBRIDERM brand skin cream.

[10] = test system: human oral cancer cells; conditions: in vitro; cited from earlier work
[11] = Color matching with COLORCURVE swatches; type: physicochemical; conditions: cream A, same set of samples as Table I
From the text: In the COLORCURVE system, colors are scaled on a 3-dimensional scheme. One dimension, which for convenience here will be termed the vertical dimension, is value, defined more or less according to Munsell (op cit). The two dimensions of each plane are hue and intensity or saturation. The "hues" of the COLORCURVE system are the four primary colors of visible light: red, yellow, green and blue. Like the COLOR-AID system, the COLORCURVE system provides coded swatches for color matching. Each coded color in the COLORCURVE system is defined by light reflectance values, tristimulus values, and L*a*b* values, these being colorimetric parameters known in the art.
In the COLORCURVE code, the first number specifies the level, that is, the value of the equivalent gray tone; the level numbers increase from darker values to lighter values. For example, Level 55 colors are paler than Level 50 colors, which in turn are paler than Level 45 colors. The second and third codes each consist of a letter followed by a single-digit number. The letter identifies one of four hues (R-red, Y-yellow, B-blue, and G-green, these being the four "primary" colors in light), and the number describes the intensity of the hue. Thus, L40 R3 Y2 specifies value Level 40, red hue saturation level of 3, and yellow hue saturation level of 2 (where increasing numbers from 1 to 8 designate increasing saturation levels). […]

[12] = Color matching with COLOR-AID swatchbook; type: physicochemical; conditions: 1% β carotene, ⊕ darker, ⊖ paler than swatch
Method: Creams containing cyclodextrin-complexed β carotene and uncomplexed β carotene were prepared by adding the respective carotene preparation to one or more of several different commercially available creams. The commercial creams used include LUBRIDERM, NOXZEMA, POND'S hand cream, POND'S Cold Cream, and NIVEA moisturizing cream. The amount of complex needed to achieve a β carotene content of 1% by weight was calculated using the measurement of percent loading for the particular complex, and this amount was added to the cream as purchased. Control samples contained 1% uncomplexed β carotene by weight of the cream. […] Since the amount of β carotene by weight is the same in all the cream samples, including those to which β carotene was added in pure form and those to which the β carotene was added in the form of β carotene/cyclodextrin complex, differences in color intensity and hue are not ascribable to a simple dilution effect.
The color differences among complexed and uncomplexed β carotene and among creams containing complexed vs. uncomplexed β carotene are here characterized according to the COLOR-AID swatchbook.
In the present case, color matching was performed under fluorescent lighting of the full-spectrum type.

[13] = test system: oral carcinoma cell; conditions: in at least some cases; cited from earlier work

CC1=C(CC(=O)O)c2cc(F)ccc2/C1=C\c1ccc([S+](C)[O-])cc1 (stereo not drawn) [Sulindac, cis-5-fluoro-2-methyl-1-[p-(methyl-sulfinyl)benzylidene]indene-3-acetic acid]
growth of colon tumors [1]: inhibits growth of colon tumors in animals | regression of colon polyps [2]: cause regression of colon polyps in humans

Cc1c(C)c2c(c(C)c1O)CCC(C)(CCCC(C)CCCC(C)CCCC(C)C)O2 (stereo not drawn) [Vitamin E (alpha tocopherol), alpha tocopherol]
inhibition of development of carcinogen-induced epidermoid carcinomas [3]: inhibit the development of carcinogen-induced epidermoid carcinomas, and in some cases to completely prevent their growth

CC1=C(/C=C/C(C)=C/C=C/C(C)=C/C=C/C=C(C)/C=C/C=C(C)/C=C/C2=C(C)CCCC2(C)C)C(C)(C)CCC1 [β-carotene]
% Abs. Loss (at 450 nm) [4]: 42% | effect of mixing with βCD on solubility in LUBRIDERM skin cream [5]: significantly increases its solubility | number and sizes of tumors [6]: reduced the number and sizes of tumors | color of powder [7]: deep, red to orange-red color | visible precipitate in aqueous solution ([8]; 20 mg β carotene with 80 mg β cyclodextrin, 0.5 ml buffered saline into 100 ml distilled water): clear solution with no visible precipitate | visible precipitate in aqueous solution ([8]; lesser amount or no cyclodextrin): red-brown precipitate | texture of composition or cream ([9]; final cream): does not produce undesirable color changes or grainy textures | appearance of skin cream with β carotene (previous attempts) ([9]; uncomplexed β carotene): unpleasant mustard-like appearance | inhibition of human oral cancer cells [10]: inhibit human oral cancer cells in vitro | selective killing of tumor cells over normal cells [10]: preferentially kill tumor cells over normal (non-tumor) cells | COLORCURVE code, A [11]: L50 R3YS; also recorded: L55 R3YS | COLOR-AID code, LUBRIDERM [12]: RO-P2-1⊕ | COLOR-AID code, PONDS ([12]; PONDS hand/skin cream): O-S1⊕ | tumor inhibitory effects vs Vitamin A [13]: superior to Vitamin A in its tumor inhibitory effects
